Results as given in the supplement of paper PMC10307832.

What was measured:
Experiment in all cases: relative viability (nuclei count vs DMSO), 5 days (fraction); higher = more cells survive
201T = tested on: 201T
Summary of the method: (§1)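 Relative viability equals treated-well nuclei counts divided by vehicle-well nuclei counts. Counts came from 4× images of lung cancer cell lines grown in 1536-well plates for 5 days after pin-tool dosing on the day after seeding. Dosing used one drug alone or a fixed anchor-drug dose plus five library-drug doses (not always all listed) in √10 steps, and values are medians of duplicate plates.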

A-427 = tested on: A-427
Summary of the method: as §1

COR-L23 = tested on: COR-L23
Summary of the method: as §1

HARA = tested on: HARA
Summary of the method: as §1

HCC-15 = tested on: HCC-15
Summary of the method: as §1

HCC-366 = tested on: HCC-366
Summary of the method: as §1

HCC-44 = tested on: HCC-44
Summary of the method: as §1

HCC-78 = tested on: HCC-78
Summary of the method: as §1

LCLC-103H = tested on: LCLC-103H
Summary of the method: as §1

LCLC-97TM1 = tested on: LCLC-97TM1
Summary of the method: as §1

LOU-NH91 = tested on: LOU-NH91
Summary of the method: as §1

NCI-H1734 = tested on: NCI-H1734
Summary of the method: as §1

NCI-H1993 = tested on: NCI-H1993
Summary of the method: as §1

NCI-H2009 = tested on: NCI-H2009
Summary of the method: as §1

NCI-H2023 = tested on: NCI-H2023
Summary of the method: as §1

NCI-H2126 = tested on: NCI-H2126
Summary of the method: as §1

NCI-H441 = tested on: NCI-H441
Summary of the method: as §1

NCI-H460 = tested on: NCI-H460
Summary of the method: as §1

NCI-H650 = tested on: NCI-H650
Summary of the method: as §1

RERF-LC-KJ = tested on: RERF-LC-KJ
Summary of the method: as §1

SW 1573 = tested on: SW 1573
Summary of the method: as §1

## O=C(O)CCCCC(CCSCc1ccccc1)SCc1ccccc1 (centres undefined) [CPI-613] + Cc1nc(NC(=O)N2CCC[C@H]2C(N)=O)sc1-c1ccnc(C(C)(C)C(F)(F)F)c1 [Alpelisib] (partner 2 µM)
201T; first compound 5 µM
  relative viability: 1
201T; first compound 15.81 µM
  relative viability: 0.976
201T; first compound 50 µM
  relative viability: 0.996
201T; first compound 158.11 µM
  relative viability: 1.01
201T; first compound 500 µM
  relative viability: 1.01
A-427; first compound 5 µM
  relative viability: 1.02
A-427; first compound 15.81 µM
  relative viability: 1.06
A-427; first compound 50 µM
  relative viability: 1.01
A-427; first compound 158.11 µM
  relative viability: 0.985
A-427; first compound 500 µM
  relative viability: 0.857
COR-L23; first compound 5 µM
  relative viability: 0.745
COR-L23; first compound 15.81 µM
  relative viability: 0.696
COR-L23; first compound 50 µM
  relative viability: 0.852
COR-L23; first compound 158.11 µM
  relative viability: 0.281
COR-L23; first compound 500 µM
  relative viability: 0.0191
HARA; first compound 5 µM
  relative viability: 0.856
HARA; first compound 15.81 µM
  relative viability: 0.681
HARA; first compound 50 µM
  relative viability: 0.942
HARA; first compound 158.11 µM
  relative viability: 0.401
HARA; first compound 500 µM
  relative viability: 0.0463
HCC-15; first compound 5 µM
  relative viability: 0.942
HCC-15; first compound 15.81 µM
  relative viability: 0.805
HCC-15; first compound 50 µM
  relative viability: 0.828
HCC-15; first compound 158.11 µM
  relative viability: 0.562
HCC-15; first compound 500 µM
  relative viability: 0.35
HCC-366; first compound 5 µM
  relative viability: 0.322
HCC-366; first compound 15.81 µM
  relative viability: 0.373
HCC-366; first compound 50 µM
  relative viability: 0.441
HCC-366; first compound 158.11 µM
  relative viability: 0.355
HCC-366; first compound 500 µM
  relative viability: 0.0061
HCC-44; first compound 5 µM
  relative viability: 0.841
HCC-44; first compound 15.81 µM
  relative viability: 0.758
HCC-44; first compound 50 µM
  relative viability: 0.92
HCC-44; first compound 158.11 µM
  relative viability: 0.374
HCC-44; first compound 500 µM
  relative viability: 0.041
HCC-78; first compound 5 µM
  relative viability: 0.26
HCC-78; first compound 15.81 µM
  relative viability: 0.309
HCC-78; first compound 158.11 µM
  relative viability: 0.338
HCC-78; first compound 500 µM
  relative viability: 0.358
LCLC-103H; first compound 5 µM
  relative viability: 0.845
LCLC-103H; first compound 15.81 µM
  relative viability: 0.974
LCLC-103H; first compound 50 µM
  relative viability: 0.883
LCLC-103H; first compound 158.11 µM
  relative viability: 0.873
LCLC-103H; first compound 500 µM
  relative viability: 0.964
LCLC-97TM1; first compound 5 µM
  relative viability: 0.216
LCLC-97TM1; first compound 15.81 µM
  relative viability: 0.254
LCLC-97TM1; first compound 50 µM
  relative viability: 0.311
LCLC-97TM1; first compound 158.11 µM
  relative viability: 0.139
LCLC-97TM1; first compound 500 µM
  relative viability: 0.0641
LOU-NH91; first compound 5 µM
  relative viability: 0.73
LOU-NH91; first compound 15.81 µM
  relative viability: 0.679
LOU-NH91; first compound 50 µM
  relative viability: 0.743
LOU-NH91; first compound 158.11 µM
  relative viability: 0.728
LOU-NH91; first compound 500 µM
  relative viability: 0.718
NCI-H1734; first compound 5 µM
  relative viability: 0.629
NCI-H1734; first compound 15.81 µM
  relative viability: 0.694
NCI-H1734; first compound 50 µM
  relative viability: 0.625
NCI-H1734; first compound 158.11 µM
  relative viability: 0.493
NCI-H1734; first compound 500 µM
  relative viability: 0.098
NCI-H1993; first compound 5 µM
  relative viability: 0.709
NCI-H1993; first compound 15.81 µM
  relative viability: 0.721
NCI-H1993; first compound 50 µM
  relative viability: 0.752
NCI-H1993; first compound 158.11 µM
  relative viability: 0.485
NCI-H1993; first compound 500 µM
  relative viability: 0.432
NCI-H2009; first compound 5 µM
  relative viability: 1.19
NCI-H2009; first compound 15.81 µM
  relative viability: 1.1
NCI-H2009; first compound 50 µM
  relative viability: 1.12
NCI-H2009; first compound 158.11 µM
  relative viability: 0.141
NCI-H2009; first compound 500 µM
  relative viability: 0.014
NCI-H2023; first compound 5 µM
  relative viability: 0.624
NCI-H2023; first compound 15.81 µM
  relative viability: 0.576
NCI-H2023; first compound 50 µM
  relative viability: 0.548
NCI-H2023; first compound 158.11 µM
  relative viability: 0.0809
NCI-H2023; first compound 500 µM
  relative viability: 0.0084
NCI-H2126; first compound 5 µM
  relative viability: 0.755
NCI-H2126; first compound 15.81 µM
  relative viability: 0.815
NCI-H2126; first compound 50 µM
  relative viability: 0.78
NCI-H2126; first compound 158.11 µM
  relative viability: 0.749
NCI-H2126; first compound 500 µM
  relative viability: 0.747
NCI-H441; first compound 5 µM
  relative viability: 0.692
NCI-H441; first compound 15.81 µM
  relative viability: 1.01
NCI-H441; first compound 50 µM
  relative viability: 0.573
NCI-H441; first compound 158.11 µM
  relative viability: 0.216
NCI-H441; first compound 500 µM
  relative viability: 0.007
NCI-H460; first compound 5 µM
  relative viability: 0.426
NCI-H460; first compound 15.81 µM
  relative viability: 0.496
NCI-H460; first compound 50 µM
  relative viability: 0.433
NCI-H460; first compound 158.11 µM
  relative viability: 0.0466
NCI-H460; first compound 500 µM
  relative viability: 0.006
NCI-H650; first compound 5 µM
  relative viability: 1.18
NCI-H650; first compound 15.81 µM
  relative viability: 1.06
NCI-H650; first compound 50 µM
  relative viability: 1.06
NCI-H650; first compound 158.11 µM
  relative viability: 0.931
NCI-H650; first compound 500 µM
  relative viability: 0.892
RERF-LC-KJ; first compound 5 µM
  relative viability: 0.748
RERF-LC-KJ; first compound 15.81 µM
  relative viability: 1.34
RERF-LC-KJ; first compound 50 µM
  relative viability: 0.757
RERF-LC-KJ; first compound 158.11 µM
  relative viability: 0.869
RERF-LC-KJ; first compound 500 µM
  relative viability: 0.733
SW 1573; first compound 5 µM
  relative viability: 0.729
SW 1573; first compound 15.81 µM
  relative viability: 0.764
SW 1573; first compound 50 µM
  relative viability: 0.806
SW 1573; first compound 158.11 µM
  relative viability: 0.778
SW 1573; first compound 500 µM
  relative viability: 0.669
